Laboratory results as given in ChEMBL document CHEMBL4507319 (2021).

Columns and labels:
[1] = test system: Receptor-type tyrosine-protein kinase FLT3 (Homo sapiens), P36888 [R834Q]; details: Compound concentration 1000.0 nM
[2] = target: Tyrosine-protein kinase Lyn (Homo sapiens) (UniProt P07948); details: Compound concentration 1000.0 nM
[3] = target: T1, Serine/threonine-protein kinase STK11 (Homo sapiens) (UniProt Q15831); details: Compound concentration 1000.0 nM
T1 sequence (whole entry): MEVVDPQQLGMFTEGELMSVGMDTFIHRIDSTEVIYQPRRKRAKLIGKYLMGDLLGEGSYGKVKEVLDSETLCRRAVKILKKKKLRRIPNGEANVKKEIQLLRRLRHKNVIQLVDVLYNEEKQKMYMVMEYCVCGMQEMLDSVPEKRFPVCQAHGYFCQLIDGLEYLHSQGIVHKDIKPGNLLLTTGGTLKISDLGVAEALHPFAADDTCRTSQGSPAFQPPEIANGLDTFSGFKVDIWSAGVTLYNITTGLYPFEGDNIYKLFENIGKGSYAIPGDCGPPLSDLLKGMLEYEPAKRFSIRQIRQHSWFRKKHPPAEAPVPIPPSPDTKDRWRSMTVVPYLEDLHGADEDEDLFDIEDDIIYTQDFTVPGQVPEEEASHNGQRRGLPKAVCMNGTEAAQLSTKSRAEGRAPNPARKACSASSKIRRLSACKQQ

[4] = target: Dual specificity testis-specific protein kinase 1 (Homo sapiens) (UniProt Q15569); details: Compound concentration 1000.0 nM
Sequence of Dual specificity testis-specific protein kinase 1 (Homo sapiens) (Q15569 whole entry, looked up, canonical isoform): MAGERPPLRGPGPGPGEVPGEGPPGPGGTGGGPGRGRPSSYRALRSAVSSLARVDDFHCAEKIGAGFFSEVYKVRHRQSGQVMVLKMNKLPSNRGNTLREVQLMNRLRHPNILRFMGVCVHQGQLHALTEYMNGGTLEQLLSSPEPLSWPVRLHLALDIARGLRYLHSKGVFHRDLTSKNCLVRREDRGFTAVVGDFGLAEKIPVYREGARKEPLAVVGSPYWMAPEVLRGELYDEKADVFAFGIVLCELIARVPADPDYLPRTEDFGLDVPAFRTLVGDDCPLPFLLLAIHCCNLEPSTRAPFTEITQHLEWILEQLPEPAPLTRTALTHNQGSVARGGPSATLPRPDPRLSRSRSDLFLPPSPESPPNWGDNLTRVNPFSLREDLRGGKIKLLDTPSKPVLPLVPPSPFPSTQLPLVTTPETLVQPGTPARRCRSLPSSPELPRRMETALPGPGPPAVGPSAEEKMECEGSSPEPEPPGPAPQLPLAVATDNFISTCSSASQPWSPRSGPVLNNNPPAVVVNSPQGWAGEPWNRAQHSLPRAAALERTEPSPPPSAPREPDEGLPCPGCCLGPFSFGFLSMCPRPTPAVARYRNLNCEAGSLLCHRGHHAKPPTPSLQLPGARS

[5] = test system: Phosphatidylinositol 4,5-bisphosphate 3-kinase catalytic subunit alpha isoform (Homo sapiens), P42336 [E545A]; details: Compound concentration 1000.0 nM
Sequence of Phosphatidylinositol 4,5-bisphosphate 3-kinase catalytic subunit alpha isoform (Homo sapiens), P42336 [E545A] (P42336 whole entry E545A, canonical isoform): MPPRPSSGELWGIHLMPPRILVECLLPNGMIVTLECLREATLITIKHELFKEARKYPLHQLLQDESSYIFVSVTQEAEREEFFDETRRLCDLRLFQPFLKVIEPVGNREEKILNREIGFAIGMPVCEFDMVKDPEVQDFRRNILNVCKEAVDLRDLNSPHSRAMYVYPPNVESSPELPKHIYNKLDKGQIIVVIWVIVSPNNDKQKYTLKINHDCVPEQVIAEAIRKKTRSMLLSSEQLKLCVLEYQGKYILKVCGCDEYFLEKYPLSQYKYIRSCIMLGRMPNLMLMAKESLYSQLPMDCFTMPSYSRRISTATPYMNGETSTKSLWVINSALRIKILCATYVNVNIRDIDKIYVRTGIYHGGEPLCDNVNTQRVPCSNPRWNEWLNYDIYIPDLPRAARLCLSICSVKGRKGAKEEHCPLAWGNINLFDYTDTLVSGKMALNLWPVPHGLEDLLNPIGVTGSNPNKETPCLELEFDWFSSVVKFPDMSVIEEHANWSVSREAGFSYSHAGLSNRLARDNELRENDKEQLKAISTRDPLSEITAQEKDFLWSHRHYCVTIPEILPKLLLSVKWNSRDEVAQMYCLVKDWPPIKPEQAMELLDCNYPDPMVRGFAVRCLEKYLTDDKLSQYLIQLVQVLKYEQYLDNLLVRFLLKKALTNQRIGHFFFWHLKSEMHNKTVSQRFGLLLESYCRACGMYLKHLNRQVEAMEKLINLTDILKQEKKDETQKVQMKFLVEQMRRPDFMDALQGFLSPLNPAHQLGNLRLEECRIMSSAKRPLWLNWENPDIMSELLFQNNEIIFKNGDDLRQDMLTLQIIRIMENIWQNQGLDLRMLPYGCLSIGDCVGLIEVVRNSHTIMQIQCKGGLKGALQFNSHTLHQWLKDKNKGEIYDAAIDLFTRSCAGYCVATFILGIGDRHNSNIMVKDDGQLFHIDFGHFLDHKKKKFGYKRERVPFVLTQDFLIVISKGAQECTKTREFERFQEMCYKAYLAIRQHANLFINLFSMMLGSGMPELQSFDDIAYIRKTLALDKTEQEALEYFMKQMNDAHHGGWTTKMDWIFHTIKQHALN

[6] = target: T2, Serine/threonine-protein kinase Sgk1 (Homo sapiens) (UniProt O00141); details: Compound concentration 1000.0 nM
T2 sequence (whole entry): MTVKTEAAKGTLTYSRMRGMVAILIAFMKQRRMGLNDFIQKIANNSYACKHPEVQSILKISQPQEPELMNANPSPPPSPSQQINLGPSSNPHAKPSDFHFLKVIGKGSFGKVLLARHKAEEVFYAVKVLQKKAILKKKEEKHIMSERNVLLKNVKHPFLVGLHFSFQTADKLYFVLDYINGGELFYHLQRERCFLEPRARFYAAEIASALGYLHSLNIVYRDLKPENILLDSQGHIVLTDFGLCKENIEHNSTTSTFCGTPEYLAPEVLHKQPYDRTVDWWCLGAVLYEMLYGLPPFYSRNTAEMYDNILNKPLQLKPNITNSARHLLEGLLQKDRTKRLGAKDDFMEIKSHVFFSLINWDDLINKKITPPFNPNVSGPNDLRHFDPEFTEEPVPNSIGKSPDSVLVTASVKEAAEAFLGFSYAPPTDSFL

[7] = test system: Epidermal growth factor receptor (Homo sapiens), P00533 [T790M]; details: Compound concentration 1000.0 nM
[8] = target: T3, Calcium/calmodulin-dependent protein kinase type IV (Homo sapiens) (UniProt Q16566); details: Compound concentration 1000.0 nM
T3 sequence (whole entry): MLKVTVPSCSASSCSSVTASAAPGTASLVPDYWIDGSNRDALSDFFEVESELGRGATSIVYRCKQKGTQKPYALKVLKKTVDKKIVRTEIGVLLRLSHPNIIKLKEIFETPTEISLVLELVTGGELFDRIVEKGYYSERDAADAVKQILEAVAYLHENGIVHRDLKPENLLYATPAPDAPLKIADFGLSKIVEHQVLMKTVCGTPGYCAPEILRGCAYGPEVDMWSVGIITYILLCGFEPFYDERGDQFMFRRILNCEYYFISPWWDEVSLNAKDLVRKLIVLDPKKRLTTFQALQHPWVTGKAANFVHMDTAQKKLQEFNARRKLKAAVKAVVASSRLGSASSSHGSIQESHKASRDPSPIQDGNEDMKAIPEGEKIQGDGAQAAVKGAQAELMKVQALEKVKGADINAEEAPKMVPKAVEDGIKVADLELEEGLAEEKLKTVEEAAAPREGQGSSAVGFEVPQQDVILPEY

[9] = target: Cyclin-dependent kinase 4 (Homo sapiens) (UniProt P11802); details: Compound concentration 1000.0 nM
[10] = test system: Tyrosine-protein kinase ABL1 (Homo sapiens), P00519 [E255K]; details: Compound concentration 1000.0 nM
[11] = target: T4, Dual specificity protein kinase TTK (Homo sapiens) (UniProt P33981); details: Compound concentration 1000.0 nM
T4 sequence (whole entry): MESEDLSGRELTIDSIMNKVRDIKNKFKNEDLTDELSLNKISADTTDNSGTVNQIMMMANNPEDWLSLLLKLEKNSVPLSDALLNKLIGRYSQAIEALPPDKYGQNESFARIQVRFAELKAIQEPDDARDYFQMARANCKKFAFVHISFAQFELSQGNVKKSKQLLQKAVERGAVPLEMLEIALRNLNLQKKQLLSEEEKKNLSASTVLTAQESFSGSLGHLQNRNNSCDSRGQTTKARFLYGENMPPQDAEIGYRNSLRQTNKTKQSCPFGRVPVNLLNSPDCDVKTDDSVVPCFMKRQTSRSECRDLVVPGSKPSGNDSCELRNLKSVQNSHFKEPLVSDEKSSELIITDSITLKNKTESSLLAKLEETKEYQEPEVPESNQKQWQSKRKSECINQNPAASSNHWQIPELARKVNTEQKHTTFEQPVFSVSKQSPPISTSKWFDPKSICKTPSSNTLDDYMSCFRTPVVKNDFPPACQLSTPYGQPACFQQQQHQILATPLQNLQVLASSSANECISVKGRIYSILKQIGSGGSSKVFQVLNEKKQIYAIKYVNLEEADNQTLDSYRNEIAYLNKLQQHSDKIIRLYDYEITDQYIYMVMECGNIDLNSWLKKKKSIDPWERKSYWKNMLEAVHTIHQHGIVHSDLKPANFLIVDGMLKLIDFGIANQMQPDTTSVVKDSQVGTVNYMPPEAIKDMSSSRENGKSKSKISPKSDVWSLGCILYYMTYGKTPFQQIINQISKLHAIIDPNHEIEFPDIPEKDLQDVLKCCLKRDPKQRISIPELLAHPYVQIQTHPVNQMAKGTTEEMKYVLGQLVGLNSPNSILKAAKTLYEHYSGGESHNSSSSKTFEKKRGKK

[12] = target: RAC-beta serine/threonine-protein kinase (Homo sapiens) (UniProt P31751); details: Compound concentration 1000.0 nM
[13] = target: Mast/stem cell growth factor receptor Kit (Homo sapiens) (UniProt P10721); details: Compound concentration 1000.0 nM
[14] = target: 1-phosphatidylinositol 3-phosphate 5-kinase (Homo sapiens) (UniProt Q9Y2I7); details: Compound concentration 1000.0 nM
Sequence of 1-phosphatidylinositol 3-phosphate 5-kinase (Homo sapiens) (Q9Y2I7 whole entry): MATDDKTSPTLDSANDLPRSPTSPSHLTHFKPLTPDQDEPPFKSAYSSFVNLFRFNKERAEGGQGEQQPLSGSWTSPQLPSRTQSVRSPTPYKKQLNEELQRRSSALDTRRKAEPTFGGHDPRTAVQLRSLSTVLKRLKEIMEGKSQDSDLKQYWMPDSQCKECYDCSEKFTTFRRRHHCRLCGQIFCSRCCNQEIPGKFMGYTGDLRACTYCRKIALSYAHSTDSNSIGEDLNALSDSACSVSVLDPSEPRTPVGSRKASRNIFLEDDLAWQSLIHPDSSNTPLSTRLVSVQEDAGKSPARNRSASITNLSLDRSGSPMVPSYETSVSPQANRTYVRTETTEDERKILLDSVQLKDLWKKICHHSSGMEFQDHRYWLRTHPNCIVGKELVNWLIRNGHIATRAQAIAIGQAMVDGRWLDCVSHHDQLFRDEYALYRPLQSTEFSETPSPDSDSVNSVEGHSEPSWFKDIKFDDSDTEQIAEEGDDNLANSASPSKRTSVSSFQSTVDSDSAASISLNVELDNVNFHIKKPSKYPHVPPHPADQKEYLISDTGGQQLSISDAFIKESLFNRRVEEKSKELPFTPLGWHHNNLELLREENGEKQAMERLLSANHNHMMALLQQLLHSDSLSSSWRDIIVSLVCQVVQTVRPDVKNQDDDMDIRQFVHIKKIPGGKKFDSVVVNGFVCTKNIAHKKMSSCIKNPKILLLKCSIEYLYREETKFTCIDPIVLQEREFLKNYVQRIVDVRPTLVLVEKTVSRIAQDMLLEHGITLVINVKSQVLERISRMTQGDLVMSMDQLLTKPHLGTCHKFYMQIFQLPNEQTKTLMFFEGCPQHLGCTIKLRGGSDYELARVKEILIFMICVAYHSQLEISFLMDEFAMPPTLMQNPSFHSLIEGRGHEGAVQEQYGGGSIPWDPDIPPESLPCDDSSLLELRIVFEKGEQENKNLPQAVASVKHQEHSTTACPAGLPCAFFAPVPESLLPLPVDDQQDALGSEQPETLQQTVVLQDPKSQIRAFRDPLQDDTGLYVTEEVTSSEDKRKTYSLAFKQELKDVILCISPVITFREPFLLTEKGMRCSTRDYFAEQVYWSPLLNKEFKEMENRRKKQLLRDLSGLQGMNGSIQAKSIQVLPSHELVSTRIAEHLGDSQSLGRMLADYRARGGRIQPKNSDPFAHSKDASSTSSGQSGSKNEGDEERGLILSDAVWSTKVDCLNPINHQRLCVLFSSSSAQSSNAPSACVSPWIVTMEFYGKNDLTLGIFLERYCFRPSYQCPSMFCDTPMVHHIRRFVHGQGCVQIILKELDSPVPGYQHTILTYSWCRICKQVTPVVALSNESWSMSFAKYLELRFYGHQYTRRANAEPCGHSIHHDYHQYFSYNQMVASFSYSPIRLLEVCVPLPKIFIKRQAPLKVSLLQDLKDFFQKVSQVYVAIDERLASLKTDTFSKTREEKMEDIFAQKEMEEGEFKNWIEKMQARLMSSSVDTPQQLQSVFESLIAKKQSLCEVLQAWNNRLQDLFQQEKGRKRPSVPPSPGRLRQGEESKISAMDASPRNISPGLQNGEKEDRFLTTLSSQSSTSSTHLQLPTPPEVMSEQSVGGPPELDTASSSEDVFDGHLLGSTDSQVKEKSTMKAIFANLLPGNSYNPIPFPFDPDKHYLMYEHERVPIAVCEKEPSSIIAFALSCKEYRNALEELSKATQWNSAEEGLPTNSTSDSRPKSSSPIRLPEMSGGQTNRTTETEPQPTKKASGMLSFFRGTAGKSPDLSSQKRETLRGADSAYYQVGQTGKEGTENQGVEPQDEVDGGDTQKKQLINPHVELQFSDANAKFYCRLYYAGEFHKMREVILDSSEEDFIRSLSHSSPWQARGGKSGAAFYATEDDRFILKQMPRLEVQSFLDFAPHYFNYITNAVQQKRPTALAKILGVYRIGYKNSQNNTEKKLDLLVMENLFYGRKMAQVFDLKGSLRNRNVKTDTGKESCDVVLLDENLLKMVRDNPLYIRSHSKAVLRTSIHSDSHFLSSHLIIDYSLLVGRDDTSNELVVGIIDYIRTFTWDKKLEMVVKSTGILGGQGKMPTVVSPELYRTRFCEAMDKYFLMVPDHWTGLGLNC

[15] = target: Sodium-dependent noradrenaline transporter (Homo sapiens) (UniProt P23975); details: Compound concentration 10.0 uM
Sequence of Sodium-dependent noradrenaline transporter (Homo sapiens) (P23975 whole entry): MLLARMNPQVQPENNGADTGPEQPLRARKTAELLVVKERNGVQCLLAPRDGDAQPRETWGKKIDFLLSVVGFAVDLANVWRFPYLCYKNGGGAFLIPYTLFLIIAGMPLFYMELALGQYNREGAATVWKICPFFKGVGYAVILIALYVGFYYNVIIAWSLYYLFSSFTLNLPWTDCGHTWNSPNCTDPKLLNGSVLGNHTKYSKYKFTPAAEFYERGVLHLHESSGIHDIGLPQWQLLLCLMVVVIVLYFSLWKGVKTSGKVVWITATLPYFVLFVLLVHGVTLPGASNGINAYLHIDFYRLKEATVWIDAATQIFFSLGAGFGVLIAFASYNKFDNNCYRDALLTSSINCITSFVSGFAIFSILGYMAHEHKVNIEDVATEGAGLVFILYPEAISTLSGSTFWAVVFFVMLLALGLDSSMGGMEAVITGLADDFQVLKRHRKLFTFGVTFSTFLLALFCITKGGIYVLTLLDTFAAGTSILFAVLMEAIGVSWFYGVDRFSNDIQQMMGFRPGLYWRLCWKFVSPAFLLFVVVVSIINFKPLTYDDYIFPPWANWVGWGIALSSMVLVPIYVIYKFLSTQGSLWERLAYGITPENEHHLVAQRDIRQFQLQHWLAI

Sequence of Tyrosine-protein kinase Lyn (Homo sapiens) (P07948 2-512 limits assumed): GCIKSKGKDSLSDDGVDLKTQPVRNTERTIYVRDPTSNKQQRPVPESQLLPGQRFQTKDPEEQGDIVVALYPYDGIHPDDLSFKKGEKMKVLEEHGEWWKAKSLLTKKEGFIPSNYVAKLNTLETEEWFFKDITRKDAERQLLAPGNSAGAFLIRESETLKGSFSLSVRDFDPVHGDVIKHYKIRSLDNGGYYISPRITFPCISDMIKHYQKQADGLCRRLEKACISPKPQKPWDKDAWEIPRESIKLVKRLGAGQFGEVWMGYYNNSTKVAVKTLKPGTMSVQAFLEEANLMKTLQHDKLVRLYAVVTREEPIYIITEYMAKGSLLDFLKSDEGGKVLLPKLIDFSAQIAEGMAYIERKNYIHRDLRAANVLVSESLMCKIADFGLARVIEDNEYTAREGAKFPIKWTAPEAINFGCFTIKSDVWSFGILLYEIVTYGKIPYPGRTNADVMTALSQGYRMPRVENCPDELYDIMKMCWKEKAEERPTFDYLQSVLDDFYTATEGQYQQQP

CCc1ccccc1C(=O)Nc1n[nH]c2c(C)c(F)c(C3C(C#N)=C(C)N(C)C(C)=C3C#N)cc12 [BAY-3827]
inactive: residual activity [1] 89% | residual activity [2] 86% | residual activity [3] 100% | residual activity [4] 96% | residual activity [5] 100% | residual activity [6] 100% | residual activity [7] 100% | residual activity [8] 56% | residual activity [9] 98% | residual activity [10] 88% | residual activity [11] 82% | residual activity [12] 95% | residual activity [13] 84% | residual activity [14] 100% | inhibition [15] 2.8%

CC1=C(C#N)C(c2ccc3c(c2)c(NC(=O)c2ccccc2C)nn3C)C(C#N)=C(C)N1 [BAY-974]
inactive: residual activity [1] 90% | residual activity [2] 89% | residual activity [3] 89% | residual activity [4] 96% | residual activity [5] 71% | residual activity [6] 89% | residual activity [7] 100% | residual activity [8] 70% | residual activity [9] 100% | residual activity [10] 63% | residual activity [11] 82% | residual activity [12] 100% | residual activity [13] 100% | residual activity [14] 87% | inhibition [15] 2.85%
